Assay: Human HepG2 cell viability assay in 384 well format
Assay type: toxicity, cell-based
Parameters: dose 125 nL, time 70.5 hour; concentration not given beside the values
Conditions: HepG2 cells, read-out: Inhibition

Row | Compound | cytotoxicity at 70.5 h
1 | CCNC(=O)Nc1ncc(-c2cccnc2)s1 | -6.64%
2 | c1ccc(-c2nc(CNC3CCc4ncnn4C3)cs2)cc1 (stereo not given) | 0.00764%
3 | COc1cc(C(=O)NC2COc3ccccc3C2)ccc1OCC(N)=O (stereo not given) | -9.85%
4 | Cc1ccc(NCc2cn3c(n2)CN(Cc2ccoc2)CC3)nn1 | 12%
5 | Cc1ncc(CNCCO)c2cc(C(=O)c3ccc(Br)cc3)oc12 | -18%
6 | NC(=O)c1cnn2c1NCC(CNCCOc1ccccc1)C2 (stereo not given) | -5.14%
7 | O=C(NCC1CCCCC1)N1C[C@@H]2C[C@H]1CN2 | -7.03%
8 | CCn1cc(-c2n[nH]c(=O)n2-c2ccc3c(c2)OCO3)c(C)n1 | -4.59%
9 | CC(=O)Nc1ccc(S(=O)(=O)NC(=O)CCC2CCCO2)cc1 (stereo not given) | 26.4%
10 | CC(C)c1nc(CSc2nnc(Cn3cncn3)o2)cs1 | 0.92%
11 | O=C(c1ccno1)N1CC(c2nc(-c3ccco3)no2)C1 | -1.91%
12 | CCN1CCO[C@@H]2CN(C(=O)c3cocn3)C[C@@H]2C1 | 34.2%
13 | CCc1cnc2c(c1NCc1ccncc1)c(=O)n(C)c(=O)n2C | -8.17%
14 | O=S1(=O)CCC(c2nc(-c3cccc(Br)c3)no2)C1 (stereo not given) | -8.75%
15 | COc1ccc(S(=O)(=O)N2CCCC3(CCCN3S(C)(=O)=O)C2)cc1 (stereo not given) | 8.26%
16 | c1ncn(CC2CN(Cc3nc(C4CC4)no3)CCO2)n1 (stereo not given) | 17.2%
17 | CC(C)c1ccc(CNC(c2ccc(F)cn2)C(C)C)cc1 (stereo not given) | 0.89%
18 | Cc1cnc(NCC(C)(C)N2CCOCC2)nc1 | -4.82%
19 | Clc1cc(N2CCN(C3CCOCC3)CC2)nc2[nH]ccc12 | -0.399%
20 | O=C(Nc1cnc2n1CCCC2)c1cccc(OCC(F)(F)F)c1 | -6.16%
21 | CC(NC(=O)CCn1cccn1)c1ccc(-n2ccnn2)cc1 (stereo not given) | 15.4%
22 | O=C(Cc1cccc(F)c1F)N1CCOC(c2cccc(O)c2)C1 (stereo not given) | -2.65%
23 | Cc1cc(C)n(CC2CCCN2CC(=O)Nc2nnc(C)s2)n1 (stereo not given) | 0.949%
24 | CNC(=O)[C@@H]1CCO[C@@H]2CCN(CCc3ccccc3)C[C@H]21 | -3.11%
25 | CC1(C)CN(CC(F)(F)F)CCN1CC(=O)NC1CCCC1 | -4.28%
26 | Cn1cc(CN2C[C@@H]3OCCN(c4ncccn4)[C@@H]3C2)cn1 | 1.07%
27 | Cc1nc(N2CCCC(OCc3ccccn3)C2)c2c(C)noc2n1 (stereo not given) | -9.19%

Row | Compound | cytotoxicity at 70.5 h
28 | Cc1c(C(=O)N2CCC(O)(CN(C)C)C2)c2cc(O)ccc2n1C (stereo not given) | -9.59%
29 | O=C(NC[C@H]1OC[C@@H]2CN(Cc3ccco3)CC[C@@H]21)c1cccnc1 | 6.02%
30 | Cc1c(CNCCCOc2cccnc2)c2ccccc2n1CC(N)=O | 5.45%
31 | CCc1ncc2c(n1)CN(c1cc(N3CCN(C)CC3)nc(N)n1)C2 | 25%
32 | Cc1cc(C)c2ncc(C#N)c(NC3CCN(CC(N)=O)CC3)c2c1 | 1.44%
33 | CNc1cc(C)nc(C2COCCN2CCOc2ccc(F)cc2)n1 (stereo not given) | -3.24%
34 | Cc1ccc(Br)cc1C(=O)Nc1cc(C(N)=O)n(C)c1 | -8.22%
35 | Cc1nn(C)c(C)c1-c1ccc(=O)n(C(C)C(=O)NC(C)(C)C)n1 (stereo not given) | 3.31%
36 | Cc1nccn1C1CCCN(C(=O)c2cc3c(F)cccc3[nH]2)C1 (stereo not given) | -1.56%
37 | Cc1c(C(=O)N(C)c2ccccc2)cccc1N(C)S(C)(=O)=O | -7.07%
38 | CCCn1cc(NC(=O)c2cccc(CN3CC[C@H](O)C3)c2)nn1 | -11.9%
39 | CCCn1cc(-c2ccnc(NC3CCc4ccccc43)n2)c(C)n1 (stereo not given) | 4.9%
40 | CC(C)c1cc(C(=O)N2CCc3nc(C4CCCN4)ncc3C2)cs1 (stereo not given) | 0.261%
41 | COc1ccc(Cl)cc1S(=O)(=O)N(C)CC(=O)Nc1cccnc1 | -5.02%
42 | Cn1cc(-c2cc(C(F)(F)F)nn2CCC#N)cn1 | 11.5%
43 | COc1cccc(CC(=O)N2CCCC(c3nncn3C)C2)c1 (stereo not given) | -12.3%
44 | CCC1=N[C@@]2(CC[C@@H]3CN(C(=O)NCC4CCCCC4)C[C@@H]32)C(=O)N1 | -2.69%
45 | CCn1ccnc1CN1CCCC(CO)(Cc2cccc(Cl)c2)C1 (stereo not given) | -1.73%
46 | CCC(CO)N(Cc1ccccn1)C(=O)c1ccc2c(c1)CCO2 (stereo not given) | 15%
47 | COCCNC(=O)NCc1cc(-c2cccs2)n(C2CCCC2)n1 | -8.68%
48 | CCc1ocnc1C(=O)N1CCN(c2ccc3ccccc3c2)CC1 | 4.76%
49 | CC(C)NC(=O)NCc1ccc(C(=O)NC(C)Cn2cccn2)cc1 (stereo not given) | -13.2%
50 | CC(C)C(=O)N1CCC(C)(c2cc[nH]n2)CC1 | -0.608%
51 | COCCN(CCOC)C(=O)Nc1cc(C(F)(F)F)c[nH]c1=O | -15.1%
52 | CC[C@H]1CN2CC[C@H]1C[C@@H]2CNC(=O)Nc1ccc(Br)cc1 | -0.477%
53 | Cc1noc(C(C)C)c1C(=O)N1CCCN(Cc2cscn2)CC1 | 1.02%
54 | CCOc1cccc(C(=O)NCCC(=O)Nc2ccncc2)c1 | -19.4%

Row | Compound | cytotoxicity at 70.5 h
55 | NC(=O)COc1ccc(CNCc2cc(F)ccc2F)cc1 | 32.7%
56 | O=c1n(CCNCc2cccc3ccccc23)nc2ccccn12 | -12.6%
57 | c1ccc(CN2CCC(NCCc3ccc4c(c3)CCO4)CC2)nc1 | 0.552%
58 | COc1cc(CN(CCCN(C)C)Cc2ccccn2)cc2c1OCO2 | 0.223%
59 | Cc1oc(-c2ccco2)nc1CN1CCc2cnc(C(C)C)nc2C1 | -12%
60 | CCS(=O)(=O)N1CCc2ccc(NC(=O)NCc3ccccc3)cc21 | -3.62%
61 | O=C(c1cc(-c2ccn(CC3CC3)n2)n2ccccc12)N1CCCO1 | -3.08%
62 | Cc1ccc(N2CC3(COCCN(Cc4cnn(C)c4)C3)OCC2=O)s1 (stereo not given) | 0.295%
63 | CN1CC(=O)N(c2ccccc2)CC12CCN(C(=O)c1cccs1)C2 (stereo not given) | -5.55%
64 | CCNC(=O)NC(=O)C(C)N1CCCc2cc(OC)ccc2C1 (stereo not given) | -10.4%
65 | O=C(NC[C@@]1(COc2cnccn2)C[C@@H](O)[C@@H](O)C1)C1CC1 | 15%
66 | Cc1cccc(CN2CCC(NS(C)(=O)=O)CC2)n1 | -8.65%
67 | Cc1cc2c(c(=O)n1CCC(=O)O)C=CC(C)(C)O2 | -2.47%
68 | COCC(=O)N1CCC2(CCC2NS(=O)(=O)c2ccccc2)CC1 (stereo not given) | 28.8%
69 | CCN1C[C@H]2CCN(C(=O)Cc3cccc(OC)c3)CC[C@H]2S1(=O)=O | -8.13%
70 | CC(=O)Nc1c(C)cnn1Cc1cc(F)ccc1F | -2.07%
71 | O=C(Nc1cccc(-c2cscn2)c1)N1CCC2(CC1)CC(O)CO2 (stereo not given) | -11.6%
72 | Cc1ccc(S(=O)(=O)Nc2cnn(C3CCOCC3)c2)cc1C | 2.28%
73 | CC(C)c1nc(C2CCCN2Cc2ccn(C)c(=O)c2)no1 (stereo not given) | -0.609%
74 | CCn1nc(C)c2nc(C(C)C)nc(N3CCOCC3)c21 | 11.2%
75 | CCOCCN1CCN(CC(=O)NC2(C#N)CCCC2)CC1CC (stereo not given) | 0.4%
76 | Cc1ccsc1CNCC1CCCN1c1cccnn1 (stereo not given) | 19.9%
77 | CCN(Cc1nonc1C)C(=O)c1cc(C(F)(F)F)nn1C | -7.63%
78 | Cc1noc([C@@H]2CCO[C@@H]3CCN(Cc4ccc(C)s4)C[C@@H]32)n1 | -10.1%
79 | O=C(Cc1ccsc1)N1CCCC(c2n[nH]c3nccnc23)C1 (stereo not given) | 18.6%
80 | OC(CNCCn1cccn1)c1cccc(Br)c1 (stereo not given) | -8.75%
